From the supplement of paper PMC11061612

Experiments:
Experiment in all cases: Bliss excess, mean over the matrix (fraction); higher = more synergy
[1] = tested on: Raji (Burkitt's Lymphoma)
Outline: (§1)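 After 24 hours at 37°C and 5% CO2 in 1536-well plates, cells in DMEM/F12 or RPMI plus 10% FBS received two-drug dose matrices for 72 hours. Viability came from CellTiter-Glo 2.0 luminescence and was scaled as inhibition, anchored at 0 by vehicle wells and at 1 by blank wells. Combination Emax is taken as the second-highest inhibition in the matrix, and Bliss excess as the observed combination effect less EA + EB − EA·EB, with EA and EB the single-agent effects.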

[2] = tested on: T84 (Colorectal Carcinoma)
Outline: as §1

[3] = tested on: SNU-C2B (Colorectal Carcinoma)
Outline: as §1

[4] = tested on: DBTRG-05MG (Glioblastoma)
Outline: as §1

IST-MEL1 (Melanoma) = tested on: IST-MEL1 (Melanoma)
Outline: as §1

[5] = tested on: BHT-101 (Thyroid Gland Carcinoma)
Outline: as §1

SK-N-SH (Neuroblastoma) = tested on: SK-N-SH (Neuroblastoma)
Outline: as §1

[6] = tested on: IA-LM (Non-Small Cell Lung Carcinoma)
Outline: as §1

[7] = tested on: MS-1 (Small Cell Lung Carcinoma)
Outline: as §1

[8] = tested on: COR-L88 (Small Cell Lung Carcinoma)
Outline: as §1

[9] = tested on: SiHa (Cervical Carcinoma)
Outline: as §1

[10] = tested on: TUR (Acute Myeloid Leukemia)
Outline: as §1

[11] = tested on: SAT (Head and Neck Carcinoma)
Outline: as §1

[12] = tested on: NCI-H1341 (Small Cell Lung Carcinoma)
Outline: as §1

NCI-H226 (Mesothelioma) = tested on: NCI-H226 (Mesothelioma)
Outline: as §1

[13] = tested on: MONO-MAC-6 (Acute Myeloid Leukemia)
Outline: as §1

[14] = tested on: HT-1080 (Other Solid Carcinomas)
Outline: as §1

AM-38 (Glioblastoma) = tested on: AM-38 (Glioblastoma)
Outline: as §1

[15] = tested on: MOLT-13 (T-Lymphoblastic Leukemia)
Outline: as §1

SMILES | Bliss excess [1] | Bliss excess [2] | Bliss excess [3] | Bliss excess [4] | Bliss excess (IST-MEL1 (Melanoma)) | Bliss excess [5] | Bliss excess (SK-N-SH (Neuroblastoma)) | Bliss excess [6] | Bliss excess [7] | Bliss excess [8] | Bliss excess [9] | Bliss excess [10] | Bliss excess [11] | Bliss excess [12] | Bliss excess (NCI-H226 (Mesothelioma)) | Bliss excess [13] | Bliss excess [14] | Bliss excess (AM-38 (Glioblastoma)) | Bliss excess [15]
CN(C)CCCOc1ccc(-c2ccc3ncc4c(c3c2)n(C2CCOCC2)c(=O)n4C)cn1 [AZD0156] + O=C(c1cc(Cc2n[nH]c(=O)c3ccccc23)ccc1F)N1CCN(C(=O)C2CC2)CC1 [Olaparib] (first compound max 3 µM, partner max 3 µM) | 0.156 | -0.0535 | 0.0054 | -0.0207 | 0.0034 | 0.0766 | -0.0043 | 0.0017 | 0.142 | -0.193 | -0.0248 | 0.0469 | -0.0346 | -0.0165 | -0.0594 | 0.102 | -0.0054 | 0.167 | 0.139
C=CCn1c(=O)c2cnc(Nc3ccc(N4CCN(C)CC4)cc3)nc2n1-c1cccc(C(C)(C)O)n1 [AZD1775] + C1CN(CCC1(C(=O)N[C@@H](CCO)C2=CC=C(C=C2)Cl)N)C3=NC=NC4=C3C=CN4 [Capivasertib] (first compound max 3 µM, partner max 3 µM) | 0.0011 | -0.0807 | -0.0573 | 0.005 |  | 0.0304 | -0.0626 | -0.0348 | 0.0208 | -0.0949 | -0.0212 | 0.0434 | -0.0616 | -0.0538 | -0.0662 | 0.031 | -0.0086 | -0.0247 | 0.0139
COc1nnc2ccc(N3CCC(c4ccc(OCCN5CCN(C)C(=O)[C@H]5C)cc4)CC3)nn12 [AZD5153] + C=CCn1c(=O)c2cnc(Nc3ccc(N4CCN(C)CC4)cc3)nc2n1-c1cccc(C(C)(C)O)n1 [AZD1775] (first compound max 1 µM, partner max 1 µM) | -0.105 | -0.0643 | -0.035 | -0.0053 | -0.0398 | -0.0885 | -0.0602 | -0.0554 | -0.0687 | -0.0249 | -0.0583 | -0.0252 | -0.0305 | -0.0121 | -0.0349 | -0.0323 | -0.0362 | -0.0594 | -0.0319
COc1nnc2ccc(N3CCC(c4ccc(OCCN5CCN(C)C(=O)[C@H]5C)cc4)CC3)nn12 [AZD5153] + CC1(C)CCC(CN2CCN(c3ccc(C(=O)NS(=O)(=O)c4ccc(NCC5CCOCC5)c([N+](=O)[O-])c4)c(Oc4cnc5[nH]ccc5c4)c3)CC2)=C(c2ccc(Cl)cc2)C1 [Venetoclax] (first compound max 1 µM, 7x7, partner max 1 µM) | -0.0247 | -0.0874 | -0.0598 | -0.0832 | -0.0812 | -0.0616 | 0.0011 | -0.0639 | 0.0094 | -0.0179 | -0.0986 | -0.0224 | -0.0525 | -0.03 | -0.0192 | 0.0179 | -0.0216 | -0.135 | 0.11
COc1nnc2ccc(N3CCC(c4ccc(OCCN5CCN(C)C(=O)[C@H]5C)cc4)CC3)nn12 [AZD5153] + CCN(CCO)CCCOc1ccc2c(Nc3cc(CC(=O)Nc4cccc(F)c4)[nH]n3)ncnc2c1 [AZD2811] (first compound max 1 µM, 7x7, partner max 1 µM) | 0.0314 | -0.0536 | -0.0223 | -0.0036 | -0.0196 | -0.0257 | -0.0658 | -0.103 | -0.0171 | -0.0231 | 0.0047 | 0.131 | -0.0368 | 0.0041 | -0.0697 | 0.0519 | 0.0036 | 0.039 | -0.008
COc1nnc2ccc(N3CCC(c4ccc(OCCN5CCN(C)C(=O)[C@H]5C)cc4)CC3)nn12 [AZD5153] + CN(CC[C@H](CSC1=CC=CC=C1)NC2=C(C=C(C=C2)S(=O)(=O)NC(=O)C3=CC=C(C=C3)N4CCC(CC4)[C@H](C5=CC=CC=C5C6=CC=C(C=C6)Cl)O)S(=O)(=O)C(F)(F)F)CCO [AZD4320] (first compound max 1 µM, 7x7, partner max 1 µM) | 0.0146 |  | 0.0215 | -0.0517 |  | 0.0367 |  |  |  |  | 0.0846 | 0.0533 | 0.0464 | 0.0454 |  |  | -0.0277 | 0.103 | 0.0376
COc1nnc2ccc(N3CCC(c4ccc(OCCN5CCN(C)C(=O)[C@H]5C)cc4)CC3)nn12 [AZD5153] + C[C@@H]1COCCN1C2=NC(=NC(=C2)C3(CC3)[S@](=N)(=O)C)C4=C5C=CNC5=NC=C4 [AZD6738] (first compound max 1 µM, 7x7, partner max 10 µM) | -0.0198 | -0.131 | 0.0233 | 0.0213 | 0.0206 | -0.0166 | -0.0611 | -0.0353 | -0.0701 | -0.0201 | 0.101 | -0.0046 | 0.031 | 0.0243 | 0.0038 | -0.031 | -0.0255 | 0.0447 | 0.02
COc1nnc2ccc(N3CCC(c4ccc(OCCN5CCN(C)C(=O)[C@H]5C)cc4)CC3)nn12 [AZD5153] + Cc1c2c(nn1C)CSCc1cc(n(C)n1)CSc1cc(c3ccccc3c1)OCCCc1c(C(=O)O)n(C)c3c-2c(Cl)ccc13 [AZD5991] (first compound max 1 µM, 7x7, partner max 1 µM) | -0.0119 | -0.0524 | -0.0319 | -0.0296 | -0.0116 | 0.0167 | -0.0334 | -0.0797 | -0.0151 | 0.0848 | -0.0237 | 0.0507 | 0.0109 | 0.0366 | -0.0209 | 0.0451 | -0.0668 | -0.0083 | -0.0503
COc1nnc2ccc(N3CCC(c4ccc(OCCN5CCN(C)C(=O)[C@H]5C)cc4)CC3)nn12 [AZD5153] + Cn1cnc2c(F)c(Nc3ccc(Br)cc3Cl)c(C(=O)NOCCO)cc21 [Selumetinib] (first compound max 1 µM, 7x7, partner max 10 µM) | -0.0445 | -0.0588 | 0.019 | -0.014 | 0.0304 | -0.0593 | -0.0142 | 0.0168 | -0.0665 | -0.0196 | -0.0197 | -0.0567 | 0.002 | -0.0282 | -0.045 | -0.008 | 0.0587 | -0.0064 | 0.085
NC1(C(=O)N[C@@H](CCO)c2ccc(Cl)cc2)CCN(c2ncnc3[nH]ccc23)CC1 [Capivasertib] + CC(=O)c1c(C)c2cnc(Nc3ccc(N4CCNCC4)cn3)nc2n(C2CCCC2)c1=O [Palbociclib] (first compound max 10 µM, 7x7, partner max 10 µM) | 0.0521 | -0.0175 | -0.16 | -0.0072 | -0.0106 | -0.0022 | 0.0041 | -0.0789 | -0.0055 | -0.0113 | -0.022 | 0.0128 | -0.0203 | -0.0345 | -0.0792 | 0.0034 | -0.0779 | 0.0392 | 0.0311
NC1(C(=O)N[C@@H](CCO)c2ccc(Cl)cc2)CCN(c2ncnc3[nH]ccc23)CC1 [Capivasertib] + CC(C)n1c(=O)n(C)c2cnc3cc(F)c(-c4ccc(OCCCN5CCCCC5)nc4)cc3c21 [AZD1390] (first compound max 10 µM, 7x7, partner max 0.3 µM) | -0.0461 | -0.0417 | -0.0775 | -0.0418 | -0.0392 | -0.0197 | -0.0626 | -0.0371 | 0.0169 | -0.0746 | -0.046 | -0.0704 | -0.0275 | -0.0818 | -0.0484 | -0.0262 | -0.0504 | -0.064 | -0.037
NC1(C(=O)N[C@@H](CCO)c2ccc(Cl)cc2)CCN(c2ncnc3[nH]ccc23)CC1 [Capivasertib] + CCN(CCO)CCCOc1ccc2c(Nc3cc(CC(=O)Nc4cccc(F)c4)[nH]n3)ncnc2c1 [AZD2811] (first compound max 10 µM, 7x7, partner max 1 µM) | 0.0021 | -0.104 | -0.0032 | 0.03 | -0.0347 | -0.0124 | -0.0455 | -0.0113 | 0.0059 | -0.0738 | 0.0067 | 0.0286 | -0.0307 | -0.0036 | -0.0459 | 0.0633 | -0.0498 | 0.0122 | -0.0569
Cc1nc(Nc2ncc(C(=O)Nc3c(C)cccc3Cl)s2)cc(N2CCN(CCO)CC2)n1 [Dasatinib] + CC(=O)Nc1cccc(-n2c(=O)n(C3CC3)c(=O)c3c(Nc4ccc(I)cc4F)n(C)c(=O)c(C)c32)c1 [Trametinib] (first compound max 2 µM, 7x7, partner max 1 µM) | -0.0232 | -0.0174 | -0.0275 | 0.0499 |  | 0.0569 | -0.0507 | 0.117 | -0.0281 | -0.0239 | -0.0082 | -0.0919 | -0.0712 | 0.105 | 0.027 | -0.0052 | 0.0472 | 0.0091 | 0.0463
CC(=O)c1c(C)c2cnc(Nc3ccc(N4CCNCC4)cn3)nc2n(C2CCCC2)c1=O [Palbociclib] + CN(CC[C@H](CSC1=CC=CC=C1)NC2=C(C=C(C=C2)S(=O)(=O)NC(=O)C3=CC=C(C=C3)N4CCC(CC4)[C@H](C5=CC=CC=C5C6=CC=C(C=C6)Cl)O)S(=O)(=O)C(F)(F)F)CCO [AZD4320] (first compound max 10 µM, 7x7, partner max 1 µM) | -0.0122 |  | -0.0867 | -0.119 |  | 0.0064 |  |  |  |  | -0.044 | -0.0635 | -0.0941 | -0.008 |  |  | -0.121 | -0.0234 | -0.0216
C[C@@H](c1ccc2nccn2c1)n1nnc2ncc(-c3cnn(C)c3)nc21 [Savolitinib] + CN(CC[C@H](CSC1=CC=CC=C1)NC2=C(C=C(C=C2)S(=O)(=O)NC(=O)C3=CC=C(C=C3)N4CCC(CC4)[C@H](C5=CC=CC=C5C6=CC=C(C=C6)Cl)O)S(=O)(=O)C(F)(F)F)CCO [AZD4320] (first compound max 1 µM, 7x7, partner max 1 µM) | -0.0168 |  | -0.101 | -0.0262 |  | -0.0327 |  |  |  |  | -0.0396 | -0.0188 | -0.0345 | 0.0128 |  |  | -0.0522 | -0.0474 | -0.0166
